Reference: patent US20220233556A1, “COMPOSITIONS AND METHODS FOR TREATING OPHTHALMIC CONDITIONS” (Medicon Pharmaceuticals, Inc., priority 2017, published 2022)
Read-outs that look alike come from different tables or passages of the source.

Key:
Con A-induced dry eye = Con A-induced dry eye disease (DED) in rabbits: TBUT, tear osmolarity, STT, tear lactoferrin; format: in vivo, New Zealand White (NZW) rabbits
Method: Con A was injected under ultrasound guidance into all the lacrimal glands and the success of the injection was verified by a post-injection ultrasound image (see FIG. 1 and FIG. 2). […] This variation explains why the blind injections recommended in the original method are often unsuccessful. This was confirmed by mixing the Con A solution with methylene blue and tracking its course after injection. In about ⅓ of the cases, Con A ended up outside the gland.
Four parameters of efficacy were evaluated instead of the usual one or two. They include (a) the tear break up time (TBUT), determined using 0.2% fluorescein over the eye and recording the time taken to develop black dots, lines or obvious disruption of the fluorescein film; (b) tear osmolarity, measured using TearLab Osmolarity Test and following the manufacturer's instructions (TearLab Corp., San Diego, Calif.); (3) Schirmer tear test (STT), determined using Schirmer strips (EagleVision, Denville, N.J.) inserted between the cornea and the palpebral conjunctiva at the mid-point of the lower lid and measuring the length of moistened strip at 5 min; and (4) tear lactoferrin levels measured by ELISA kit (MyBiosource, San Diego, Calif.) following the instructions of the manufacturer. All four have been used in clinical practice and correlate with the clinical activity of the disease. The STT is the least reliable and, as result, it is clinically used less than half as frequently as TBUT.
The injections of Con A to the lacrimal glands were repeated weekly as needed. When longer than a 1-week periods of study are needed, repeat injections prolong dry eye for at least 3 weeks, making the originally acute model chronic.
PS Suppresses Con A—Induced Dry Eye in Rabbits. The effect of PS on dry eye was determined in New Zealand White (NZW) rabbits, 2-3 kg (Charles River Labs, Waltham, Mass.). These rabbits were housed singly in rooms with strict temperature (70±5° F.) and humidity (45±5%) control and acclimated for at least 2 weeks prior to induction of dry eye by injection of Con A as above. NZW rabbits with Con A-induced dry eye (three sets of injections) were treated with PS formulated as nanoparticles and administered topically as eye drops 3×/day for 21 days, starting on the day of Con A injection. […] Similar results were obtained on days 5 and 14 (data not shown). […]
The efficacy of lower concentrations of PS. The efficacy of lower concentrations of PS, 0.1% and 0.2% in DED, was also evaluated. The same animal model (rabbits with Concanavalin A-induced DED) was used. The same methodology described herein was followed, except that PS was administered as two eye drops per eye (˜25 μL each) four times a day. PS was formulated in: 10% (2-hydroxypropyl)-β-cyclodextrin, 4% Tween 80, 2.5% Vitamin E TPGS, 1.4% polyvinyl alcohol (13,000-26,000 molecular weight), 0.001% polyquad, as described herein. The Table below summarizes the corresponding findings: […]

[1] = Corneal levels of a PS 0.2% solution formulation after single topical application; format: in vivo; conditions: cornea, topical or ocular, 0.2 % PS solution (single application, volume not stated), mean ± SEM
Method: Another embodiment of this type of formulation is: 0.1% PS, 10% HP-β-CD, 4% Tween 80, 2.5% Vitamin E TPGS, 1.4% polyvinyl alcohol (PVA) (13,000-26,000 molecular weight), 0.001% polyquad. Another embodiment of this type of formulation is: 0.2% PS; 10% HP-β-CD; 4% Tween 80; 2.5% Vitamin E TPGS; 1.4% polyvinyl alcohol (PVA) (13,000-26,000 molecular weight); and 0.001% polyquad. Preparation method: PVA was dissolved into water by stirring at 95° C. for 6 h. All ingredients including the PVA solution and PS were added into a glass vial, stirred at 50° C. (in a water bath) for 4 h, and then stirred at RT overnight. The pH was adjusted to 7.4±0.2 with NaOH and the osmolarity to 280-320 mOsm with NaCl 18%. For a sterile final product, this solution was filtered through a […] film.
The corneal levels of a PS 0.2% formulation were determined after its single topical application to the surface of the eye.

[2] = PS biodistribution after topical alternative gellan gum-based in-situ gel; format: in vivo, New Zealand white rabbits; conditions: New Zealand white, rabbit, alternative gellan gum 0.4% gel
Method: Composition: 2.4-3% PS; 0.4% Gellan gum; 10% Vitamin E TPGS; 5% (2-hydroxypropyl)-β-cyclodextrin.
Results: PS in this formulation was administered topically to the eyes of New Zealand white rabbits and its biodistribution was determined as above.

Staphylococcus aureus = assay: Disk diffusion method, antibiotic disks impregnated with PS; format: cell-based; conditions: PS 1-9% vs 0% PS
Method: It was assessed whether the combination of PS with antibiotics for their topical application to the eye affects the antimicrobial activity of the antibiotics. To this end, the disk diffusion method was used.
Briefly, Staphylococcus aureus grown in culture was seeded evenly on Muller-Hinton II Agar plates (BD Diagnostic Systems) at the standard concentration of 2×10^8 colony-forming units per mL. Antibiotic antimicrobial susceptibility disks (Thermo Scientific Oxoid™) were impregnated with one of six concentrations of PS (0%, 1%, 2%, 3%, 6%, 9%); 10 μL of each was evenly dispensed on each disk. An additional control was disks with no PS and no vehicle. The growth of bacteria around each disk was monitored and the area of “no growth” around each disk was measured 24 h later.

[3] = 1 week of treatment, comparison with ophthalmic NSAIDs (FIG. 5)
[4] = PS 0.1%, two eye drops four times a day, Baseline, mean ± SEM (n = 12)
[5] = PS 0.1%, two eye drops four times a day, Day 5, mean ± SEM (n = 12)
[6] = PS 0.2%, two eye drops four times a day, Baseline, mean ± SEM (n = 12)
[7] = PS 0.2%, two eye drops four times a day, Day 5, mean ± SEM (n = 12)
[8] = PS nanoparticles, eye drops 3x/day for 21 days
[9] = aqueous humor, read-out: PS in Aqueous humor
[10] = conjunctiva, read-out: PS in Conjunctiva

CCOP(=O)(OCC)OCCCCOC(=O)CC1=C(C)/C(=C/c2ccc([S+](C)[O-])cc2)c2ccc(F)cc21 (centres unmarked) [PS, phosphosulindac]
STT (Con A-induced dry eye; [3]): no significant effect | TBUT (Con A-induced dry eye; [3]): normalized | osmolarity (Con A-induced dry eye; [3]): normalized | STT (Con A-induced dry eye; [4]): 16.4 ± 1.5 mm | TBUT (Con A-induced dry eye; [4]): 57.9 ± 1.5 s | STT (Con A-induced dry eye; [5]): 12.0 ± 0.8 mm | TBUT (Con A-induced dry eye; [5]): 45.4 ± 5.2 s | STT (Con A-induced dry eye; [6]): 15.9 ± 1.0 mm | TBUT (Con A-induced dry eye; [6]): 57.9 ± 2.1 s | STT (Con A-induced dry eye; [7]): 11.8 ± 0.9 mm | TBUT (Con A-induced dry eye; [7]): 45.7 ± 4.5 s | TBUT (Con A-induced dry eye; [8]): restored to normal | tear lactoferrin levels (Con A-induced dry eye; [8]): restored to normal | tear osmolarity (Con A-induced dry eye; [8]): restored to normal | STT value (Con A-induced dry eye; PS nanoparticles, eye drops 3x/day for 21 days, difference from vehicle significant only for trend): improved | Cmax [1]: 63400 ± 10000 nM | AUC(0-t) ([1]; read-out: AUC0-t, Cornea): 62.6 ± 10.2 µM·h | MRT inf ([1]; read-out: MRT0-inf—obs, Cornea): 60 ± 6 min | half-life ([1]; read-out: t1/2, Cornea (converted)): 42 ± 12 min | concentration at 0.5 h [2, 9]: 600 nM | concentration at 1 h [2, 9]: 400 nM | concentration at 0.5 h [2, 10]: 37700 nM | concentration at 1 h [2, 10]: 20800 nM | concentration at 3 h [2, 10]: 700 nM | concentration at 5 h [2, 10]: 1100 nM | concentration at 8 h [2, 10]: 700 nM | concentration at 0.5 h ([2]; cornea, read-out: PS in Cornea): 24300 nM | concentration at 1 h ([2]; cornea, read-out: PS in Cornea): 50800 nM | concentration at 3 h ([2]; cornea, read-out: PS in Cornea): 1500 nM | concentration at 5 h ([2]; cornea, read-out: PS in Cornea): 1100 nM | concentration at 8 h ([2]; cornea, read-out: PS in Cornea): 1600 nM | effect of PS on the inhibition zone of each antibiotic (Staphylococcus aureus): did not appreciably change
